Read-outs that look alike come from different tables or passages of the source.
Key:
PC3 = assay: MTT cytotoxicity assay, PC3; type: cell-based, human; details: 48 h
Procedure: (§1) We evaluated the cytotoxicity of 1c-6c, 1d-7d and of the positive control 1a-5a against a panel of human cancer cells using MTT (3-(4,5-dimethylthiazol-2-yl)-2,5-diphenyltetrazolium bromide) assay. The IC50 values were calculated based on three parallel experiments.
(§2) Cisplatin and oxaliplatin were purchased from Yurui Chemical Co. Ltd. (Shanghai, China). All of the other chemicals were obtained from commercial suppliers, such as Alfa […]
(§3) IonSpec QFT mass spectrometer with ESI ionization. 3-(4,5-dimethylthiazol-2-yl) […]
(§4) Phosphate-buffered saline (PBS) contains 137 mM
(§5) NaCl, 2.7 mM KCl, 10 mM Na2HPO4 and 2 mM KH2PO4. Fetal bovine serum (FBS), 0.25% trypsin/EDTA solution, and penicillin-streptomycin solution were purchased from […]
(§6) Invitrogen (Grand Island, NY, USA). […]
(§7) HeLa (cervical carcinoma cell line), MCF-7 (breast gland adenocarcinoma), LNCaP and PC3 (prostatic cancer), HepG-2 (hepatocellular carcinoma), A549 and A549R (lung carcinoma) were used for the MTT […]
(§8) In Vitro Cellular Cytotoxicity Assays
(§9) Cells seeded in 96-well plates were incubated in a 5% CO2 atmosphere in 100 µL of complete medium at 37 ℃ for 24 h. Then, 100 µL of freshly prepared culture medium containing drugs at different concentrations was added and incubated for another 48 h.
(§10) MTT (5 mg/mL, 20 µL) was added and incubated for 3 h. Finally, the medium was removed, and DMSO (150 µL) was added. The absorbance was measured at 570 nm using a Bio-Rad 680 microplate reader. The IC50 values were calculated using GraphPad […]
(§11) Prism software. […]

A549R = assay: MTT cytotoxicity assay, A549R (cisplatin-resistant); type: cell-based, human; details: for IC50: MTT, 48 h
Procedure: as §1, §2, §3, §4, §5, §6, §7, §8, §9, §10, §11

A549 = assay: MTT cytotoxicity assay, A549; type: cell-based, human; details: 48 h
Procedure: as §1, §2, §3, §4, §5, §6, §7, §8, §9, §10, §11

LNCaP = assay: MTT cytotoxicity assay, LNCaP; type: cell-based, human; details: 48 h
Procedure: as §1, §2, §3, §4, §5, §6, §7, §8, §9, §10, §11

MCF-7 = assay: MTT cytotoxicity assay, MCF-7; type: cell-based, human; details: 48 h
Procedure: as §1, §2, §3, §4, §5, §6, §7, §8, §9, §10, §11

HeLa = assay: MTT cytotoxicity assay, HeLa; type: cell-based, human; details: 48 h
Procedure: as §1, §2, §3, §4, §5, §6, §7, §8, §9, §10, §11

HepG-2 = assay: MTT cytotoxicity assay, HepG-2; type: cell-based, human; details: 48 h
Procedure: as §1, §2, §3, §4, §5, §6, §7, §8, §9, §10, §11

Stability in RPMI 1640 = type: physicochemical
From the text: (§12) One of the advantages of inert Pt(IV) prodrugs is their enhanced stability in RPMI 1640 and whole human blood.

MCF-7 cells = assay: MTT cytotoxicity with GLUT1 inhibitors (EDG, phloretin) and OCT2 inhibitor (Ctd.) in MCF-7 cells; type: cell-based, human
Procedure: For cytotoxicity assays, the GLUT1 inhibitors EDG (1) and phloretin (2), the OCT2 inhibitor Ctd. (cimetidine) (3), and the mixture of EDG and Ctd.(4) were selected to undergo a similar procedure as antitumor activity in vitro. MCF-7 cells were seeded on a 96 well plate in 100 μL of RPMI and were incubated for 24 h at 37°C, and EDG-containing RPMI medium, phloretin-containing RPMI medium and Ctd.-containing RPMI medium were used to render the serial dilution of the concentrated solutions of the platinum compounds, and 100 μL/well was added (resulting in final inhibitor concentrations of 75 mM, 100 μM and 3 mM). The cytotoxicity profiles of the compounds were evaluated using MTT assay. […]
as §8, §9
as §10, with “GraphPad Prism software. Technical repetitions and independent experiments were based on three” for “GraphPad”
For cytotoxicity assays using the GLUT1 inhibitor 4,6-O-ethylidene-α-D-glucose (EDG), phloretin and the OCT2 inhibitor Ctd., a similar procedure as described above was followed except that MCF-7 cells (3500 cells/well) were seeded on a 96 well plate in 100 µL of RPMI and incubated for 24 h at 37 °C. EDG, phloretin and Ctd. containing RPMI medium were used for serial dilution of the concentrated solutions of the platinum compounds, and 100 µL/well were added (resulting in final inhibitor concentrations of 75 mM, 100 µM and 3 mM, respectively). The cytotoxicity profiles of the compounds were evaluated using the MTT assay. […]

[1] = Stability in whole human blood; type: in vitro ADME
From the text: as §12

3T3 = assay: Viability of normal cells 3T3, 48 h incubation assay; type: cell-based
Procedure: (§13) An ideal anticancer compound should be selective for cancer cells over normal healthy cells, thereby mitigating the undesired toxic side effects associated with chemotherapy.
(§14) Scheme 9. Synthetic route of 38b. Conditions and reagents: (a) Ac2O and NaOAc; (b) TMSN3, BF3OEt2, and DCM; (c) MeONa and MeOH rt overnight; (d) BnBr, NaH, and DMF overnight; (e) […]
(§15) Preparation of 46b and 47b
(§16) Compounds 46b (38%) and 47b (45%) were prepared according to the procedure described for compounds 20b and 21b, respectively.
(§17) Compound 48b (45%) was prepared according to the procedure described for compound […]
as §8
(§18) Cells seeded in 96-well plates were incubated in a 5% CO2 atmosphere in 100 µL of complete medium at 37 ℃ for 24 h. […]
(§19) MTT (5 mg/mL, 20 µL) was added and incubated for 3 h. […] The absorbance was measured at 570 nm using a Bio-Rad 680 microplate reader. The IC50 values were calculated using GraphPad Prism software. […]
(§20) For cytotoxicity assays using the GLUT1 inhibitor 4,6-O-ethylidene-α-D-glucose (EDG), phloretin and the OCT2 inhibitor Ctd., a similar procedure as described above was followed except that MCF-7 cells (3500 cells/well) were seeded on a 96 well plate in 100 µL of RPMI and incubated for 24 h at 37 °C. […] The cytotoxicity profiles of the compounds were evaluated using the MTT assay. […]

293T = assay: Viability of normal cells 293T, 48 h incubation assay; type: cell-based
Procedure: as §13, §14, §15, §16, §17, §8, §18, §19, §20

half-life (Stability in RPMI 1640; RPMI 1640) | remained unchanged (Stability in RPMI 1640; RPMI 1640, after 48 h) [%] | decomposition (Stability in RPMI 1640; RPMI medium, up to 12 h) | t1/2 in whole human blood [1] [h] | Compound | IC50 (PC3) [µM] | IC50 (A549R) [µM] | IC50 (A549) [µM] | IC50 (LNCaP) [µM] | IC50 (MCF-7) [µM] | IC50 (HeLa) [µM] | IC50 (HepG-2) [µM] | RF: Resistance factor = IC50(A549R)/IC50(A549) (A549R) | IC50 with EDG, folds higher than 48 h IC50 (MCF-7 cells; MCF-7, EDG) [fold] | IC50 with mixture of EDG and Ctd., folds higher than 48 h IC50 (MCF-7 cells; MCF-7, EDG + Ctd.) [fold] | IC50 (MCF-7 cells; MCF-7, GLUT1 inhibitor EDG 75 mM, read-out: IC50 with EDG) [µM] | IC50 (MCF-7 cells; MCF-7, GLUT1 inhibitor phloretin 100 μM, read-out: IC50 with phloretin) [µM] | IC50 with Ctd., folds higher than 48 h IC50 (MCF-7 cells; MCF-7, OCT2 inhibitor Ctd. 3 mM) [fold] | IC50 with phloretin, folds higher than 48 h IC50 (MCF-7 cells; MCF-7, phloretin) [fold] | IC50 (3T3) [µM] | IC50 (293T) [µM]
– | – | – | – | N.N.[Cl-].[Cl-].[OH-].[OH-].[Pt+4] [2a, reference compound] | 61.4 ± 0.67 | 13.4 ± 2.57 | > 100 | 50.8 ± 0.79 | 27 ± 0.34 | 11.4 ± 1.56 | 50 ± 1.79 | – | – | – | – | – | – | – | – | –
– | – | – | – | NC1CCCCC1N.O=C1[O][Pt]([OH])([OH])[O]C1=O [4a, reference compound] | > 100 | 29.7 ± 0.64 | > 100 | 23 ± 0.89 | > 100 | 15.8 ± 0.34 | > 100 | – | – | – | – | – | – | – | – | –
– | – | – | – | CC(=O)OC[C@H]1O[C@H](NC(=O)CCC(=O)[O][Pt-2]23([OH])([NH2+][C@@H]4CCCC[C@H]4[NH2+]2)[O]C(=O)C(=O)[O]3)[C@@H](OC(C)=O)[C@@H](OC(C)=O)[C@@H]1OC(C)=O [6c] | 7.06 ± 0.56 | > 100 | 23.8 ± 0.78 | 20.1 ± 1.78 | 20.8 ± 0.45 | 16.8 ± 0.45 | 50.9 ± 1.46 | – | – | – | – | – | – | – | – | –
– | – | – | – | CC(=O)OC[C@H]1O[C@@H](NC(=O)CCC(=O)[O][Pt-2]23([OH])([NH2+][C@@H]4CCCC[C@H]4[NH2+]2)[O]C(=O)C(=O)[O]3)[C@H](OC(C)=O)[C@@H](OC(C)=O)[C@@H]1O[C@H]1O[C@H](COC(C)=O)[C@@H](OC(C)=O)[C@H](OC(C)=O)[C@H]1OC(C)=O [4c] | 22.9 ± 0.78 | 25.2 ± 1.79 | 14.3 ± 1.48 | > 100 | 7.21 ± 0.78 | > 100 | 10.7 ± 1.49 | – | – | – | – | – | – | – | – | –
– | – | – | – | CC(=O)OC[C@H]1O[C@@H](O[C@H]2[C@H](OC(C)=O)[C@@H](OC(C)=O)[C@H](NC(=O)CCC(=O)[O][Pt-2]34([OH])([NH2+][C@@H]5CCCC[C@H]5[NH2+]3)[O]C(=O)C(=O)[O]4)O[C@@H]2COC(C)=O)[C@H](OC(C)=O)[C@@H](OC(C)=O)[C@H]1OC(C)=O [2c] | > 100 | 8.37 ± 1.9 | 14.5 ± 1.47 | 4.7 ± 0.89 | 8.29 ± 1.87 | 4.05 ± 0.87 | 59.3 ± 1.49 | 0.58 | – | – | – | – | – | – | – | –
up to 170 h | 66 | No significant decomposition | ~2.5 | O=C(CCC(=O)[O][Pt-2]12([OH])([NH2+][C@@H]3CCCC[C@H]3[NH2+]1)[O]C(=O)C(=O)[O]2)NC[C@H]1OC(O)[C@H](O)[C@@H](O)[C@@H]1O (stereo partly shown) [6d] | 66.6 ± 1.45 | 47 ± 1.69 | 29.9 ± 1.78 | 20 ± 0.79 | 0.89 ± 1.34 | 2.88 ± 0.67 | 4.1 ± 1.46 | – | 36 | 95 | 31.8 | 38.7 | 82 | 44 | > 100 | 12.1

Reference: paper PMC6160541 (Frontiers in Chemistry, 2018)
